Laboratory results taken from patent publication US20230399611A1, “PRODUCTION METHOD FOR STAGE 5 NEURONS” (Ricoh Company, Ltd., priority 2022, published 2023).

Experiments:
[1] = tested on: human iPSC-derived neurons; assay: Population firing rate of iPSC-derived neurons on high-density microelectrode array (HD-MEA); type: cell-based; settings: added at 8 weeks after initiation of culture with increasing concentration; 1,024 electrodes per well; 10-minute recording per concentration
Description: Electrophysiological responses of the human iPSC-derived neurons were analyzed by using a high-density microelectrode array system (HD-MEA, MaxWell Biosystems AG).
Human iPSC-derived neurons (product name “Quick-Neuron (trademark) Excitatory-Human iPSC-derived Neurons”, ELIXIRGEN SCIENTIFIC, INC.) were cultured in the same manner as in Experimental Example 1, except that the human iPSC-derived neurons were seeded on electrodes of the high-density microelectrode array (HD-MEA) at a cell density of 100,000 cells/well, and the local electric field potential was measured over time.
4-Aminopyridine (4-AP) serving as a potassium channel inhibitor and D-2-Amino-5-phosphonopentanoic acid (D-AP5) serving ax an NMDA receptor inhibitor were added in the culture medium of iPSC-derived neurons at 8 weeks after the initiation of culture while increasing each concentration, and population firing rate histograms were recorded with 1,024 electrodes per well. One-minute stabilization and 10-minute recording were performed for each concentration. Finally, the iPSC-derived neurons were washed with three medium replacements and left for one day, and it was confirmed that the effect of each drug had disappeared.

[2] = tested on: Human iPSC-derived mature stage 5 neurons; assay: Localization change of drebrin by immunostaining after glutamic acid treatment; type: cell-based; settings: 100 μM for 10 min; immunostaining of MAP2, drebrin, nuclei
Description: Human iPSC-derived mature stage 5 neurons were treated with 100 μM glutamic acid for 10 minutes and then immunostained to examine the localization change of drebrin. For comparison, a sample immunostained without glutamic acid treatment was also prepared.

SMILES | response of population firing rate to the drug [1] | localization change of drebrin [2]
Nc1ccncc1 [4-AP, 4-Aminopyridine] | dose-dependent responses | –
N[C@H](CCCP(=O)(O)O)C(=O)O [D-AP5, D-2-Amino-5-phosphonopentanoic acid] | dose-dependent responses | –
N[C@@H](CCC(=O)O)C(=O)O [glutamate, glutamic acid] | – | drebrin was effluxed from clusters in spines
